Read-outs that look alike come from different tables or passages of the source.

Data set [1] concerns the target T1, PsPT1 (Pastinaca sativa, UniProt A0A0U1ZEE9).
T1 construct: gene PT1; full CDS (with transit peptide) in pGWB502; transient expression in Nicotiana benthamiana leaves, microsomes
Nature of the data set: UHPLC of prenylated product, microsomes. The conditions noted are these: C6 product (demethylsuberosin); DMAPP co-substrate, Mg2+, 28 °C; read-out: Demethylsuberosin / (C6-position product) / Umbelliferone. It is filed as biochemical. The source says:
(§1) UHPLC of prenylated product, microsomes on PsPT1

Data set [2] has as its system AgPT1. The settings on record: read-out: apparent Km, divalent cation.
For data set [3], the system named is CC(C)=CCOP(=O)(O)OP(=O)(O)O. Nature of the data set: UHPLC of prenylated product, microsomes. It is filed as biochemical, Pastinaca sativa. The settings on record: C6 product (demethylsuberosin), umbelliferone co-substrate, Mg2+, 28 °C.
Excerpt: as §1

Data set [4] concerns O=c1ccc2ccc(O)cc2o1. Nature of the data set: UHPLC of prenylated product, microsomes. The conditions noted are these: D2P8 (T/A), C6 product (demethylsuberosin), DMAPP co-substrate, Mg2+, 28 °C. The class given is biochemical, Pastinaca sativa.
Excerpt: as §1

On to `O=c1ccc2ccc(O)cc2o1` [umbelliferone], for which the results for the Km in data set [1] and in data set [2] (DMAPP co-substrate) were 2700 ± 600 nM and 40 ± 20 µM, respectively.

Turning to PsPT1 (Pastinaca sativa; T161A), the Km came to 4.4 ± 0.8 µM in data set [3] (D2P8 (T/A)) and 47 ± 7 µM in data set [4].

On to PsPT1 (Pastinaca sativa), for which the Km in data set [3] is 5 ± 1 µM. Regarding `CC(C)=CCOP(=O)(O)OP(=O)(O)O` [DMAPP], the Km in data set [2] (umbelliferone co-substrate) stood at 10 ± 3 µM.

The record behind these values is PMC11775389, “Catalytic mechanism underlying the regiospecificity of coumarin-substrate transmembrane prenyltransferases in Apiaceae” (Plant and Cell Physiology, 2024).
